Measured values published in ChEMBL document CHEMBL3588797, “Tetrazole activity against Candida albicans. The role of KEX2 mutations in the sensitivity to (±)-1-[5-(2-chlorophenyl)-2H-tetrazol-2-yl]propan-2-yl acetate” (Bioorg Med Chem Lett, 2015).
In brackets after ≈: the same amount, converted by molar mass. Activity calls are given as the source filed them. No cut-off for these calls is given here.

Columns and labels:
[1] = test system: Candida albicans; assay: Antifungal activity against Candida albicans 90028 ATCC assessed as inhibition of growth at 0.06 ug/ml after 48 hrs relative to control; assay type: functional
[2] = test system: Candida albicans; assay: Antifungal activity against Candida albicans 90028 ATCC assessed as inhibition of growth at 0.03 ug/ml after 48 hrs relative to control; assay type: functional
[3] = test system: Candida albicans; assay: Antifungal activity against Candida albicans 90028 ATCC assessed as inhibition of growth at 0.25 ug/ml after 48 hrs relative to control; assay type: functional
[4] = test system: Candida albicans; assay: Antifungal activity against Candida albicans 90028 ATCC assessed as inhibition of growth at 1 ug/ml after 48 hrs relative to control; assay type: functional
[5] = test system: Candida albicans; assay: Antifungal activity against Candida albicans 90028 ATCC assessed as decrease in turbidity after 48 hrs relative to control; assay type: functional
[6] = test system: Candida albicans; assay: Antifungal activity against Candida albicans 90028 ATCC assessed as inhibition of growth at 4 ug/ml after 48 hrs relative to control; assay type: functional
[7] = test system: Candida albicans; assay: Antifungal activity against Candida albicans 90028 ATCC assessed as inhibition of growth at 0.5 ug/ml after 48 hrs relative to control; assay type: functional
[8] = test system: Candida albicans; assay: Antifungal activity against Candida albicans 90028 ATCC assessed as inhibition of growth at 16 ug/ml after 48 hrs relative to control; assay type: functional
[9] = test system: Candida albicans; assay: Antifungal activity against Candida albicans 90028 ATCC assessed as inhibition of growth at 8 ug/ml after 48 hrs relative to control; assay type: functional
[10] = test system: Candida albicans; assay: Antifungal activity against Candida albicans 90028 ATCC assessed as inhibition of growth at 2 ug/ml after 48 hrs relative to control; assay type: functional
[11] = test system: Candida albicans; assay: Antifungal activity against Candida albicans 90028 ATCC assessed as inhibition of growth at 0.12 ug/ml after 48 hrs relative to control; assay type: functional
[12] = Cytotoxicity against african green monkey Vero cells assessed as reduction in cell viability at 4 to 32 ug/mL after 6 hrs by XTT assay; assay type: cell-based; settings: chlorocebus sabaeus, read-out: INH
[13] = test system: Candida albicans; assay: Inhibition of Candida albicans 1008 adhesion to the Caco-2 cell line; assay type: functional
[14] = test system: Candida albicans; assay: Inhibition of wild type Candida albicans adherence to Caco2 cells at 16 ug/ml after 18 hrs; assay type: functional; settings: Caco-2, 18 h
[15] = test system: Candida albicans; assay: Inhibition of Candida albicans with loss of one copy KEX2 allele and both copies of URA3 CNA2 mutant adhesion to the Caco-2 cell line; assay type: functional
[16] = test system: Candida albicans; assay: Inhibition of Candida albicans 1008 with trp1/kex2 delta mutant adhesion to the Caco-2 cell line; assay type: functional
[17] = test system: Candida albicans; assay: Inhibition of Wild type Candida albicans SC5314 adhesion to the Caco-2 cell line; assay type: functional
[18] = test system: Candida albicans; assay: Inhibition of Candida albicans with loss of both copies KEX2 allele and both copies of URA3 CNA4 mutant adhesion to the Caco-2 cell line; assay type: functional, organism-based
[19] = Cytotoxicity against african green monkey Vero cells assessed as reduction in cell viability at 64 to 256 ug/mL after 6 hrs by XTT assay; assay type: cell-based; settings: chlorocebus sabaeus, read-out: INH
[20] = test system: Candida albicans; assay: Inhibition of Candida albicans bioflim formation during Caco2 cell invasion assessed as sessile growth at 16 ug/ml after 18 hrs by confocal laser scanning microscopy; assay type: functional, organism-based; settings: Caco-2
[21] = test system: Candida albicans; assay: Inhibition of Candida albicans bioflim formation during Caco2 cell invasion assessed as lack of hyphea at 1 ug/ml after 18 hrs by confocal laser scanning microscopy; assay type: functional, organism-based; settings: Caco-2
[22] = test system: Candida albicans; assay: Antifungal activity against Candida albicans 90028 ATCC assessed as reduction in 99% growth after 48 hrs relative to control; assay type: functional
[23] = test system: Vero; assay: Cytotoxicity against african green monkey Vero cells assessed as reduction in cell viability at 2 to 0.125 ug/mL after 6 hrs by XTT assay; assay type: cell-based; settings: chlorocebus sabaeus
[24] = test system: Nakaseomyces glabratus; assay: Inhibition of Candida glabrate 1010 with kex2 delta mutant and functional TRP1 adhesion to the Caco-2 cell line; assay type: organism-based
[25] = test system: Candida albicans; assay: Inhibition of Candida albicans kex delta CNA1 mutant adhesion to the Caco-2 cell line; assay type: functional, organism-based

Row | SMILES | inhibition at 0.06 µg/mL [1] | inhibition at 0.03 µg/mL [2] | inhibition at 0.25 µg/mL [3] | inhibition at 1 µg/mL [4] | MIC [5] | inhibition at 4 µg/mL [6] | inhibition at 0.5 µg/mL [7] | inhibition at 16 µg/mL [8] | inhibition at 8 µg/mL [9] | inhibition at 2 µg/mL [10] | inhibition at 0.12 µg/mL [11] | further results
1 | CC(=O)OC(C)CCn1nnc(-c2ccccc2)n1 (racemic) | 98.9% | 98.9% | 99% | 98.9% | 4 µg/mL (≈ 15.4 µM) | 99% | 98.9% | 98.8% | 99% | 98.9% | 98.9% | –
2 | CC(=O)OC(C)CCn1nnc(-c2ccc(C)cc2)n1 (racemic) | 98.9% | 98.9% | 99% | 98.9% | 4 µg/mL (≈ 14.6 µM) | 99% | 98.9% | 98.9% | 99% | 99% | 98.9% | –
3 | CC(=O)OC(C)CCn1nnc(-c2ccccc2Cl)n1 (racemic) | 98.9% | 98.9% | 98.9% | 98.9% | 4 µg/mL (≈ 13.6 µM) | 99% | 98.9% | 98.9% | 99% | 98.9% | 98.9% | –
4 | CC(=O)OC(C)Cn1nnc(-c2ccc(C)cc2)n1 (racemic) | 98.9% | 98.7% | 98.9% | 99.1% | 0.5 µg/mL (≈ 1.92 µM) | 99.1% | 99% | 99% | 99% | 99% | 99% | –
5 | CC(=O)OC(C)Cn1nnc(-c2ccccc2Cl)n1 (racemic) | 98.9% | 98.9% | 99% | 99% | – | 99% | 99% | 99% | 99% | 99% | 99% | cytotoxicity at 6 h [12]: 4%; inhibition (INH) [13]: 42.3%; inhibition at 16 µg/mL [14]: 86%; inhibition (INH) [15]: 91%; inhibition (INH) [16]: 82.89%; inhibition (INH) [17]: 86%; inhibition [18]: inactive; cytotoxicity at 6 h [19]: 13%; Activity [20]: inactive; inhibition [21]: inactive; MFC [22]: 0.0313 µg/mL (≈ 0.112 µM); Activity [23]: Non-toxic; inhibition [24]: inactive; inhibition [25]: inactive
6 | CC(O)CCn1nnc(-c2ccccc2)n1 (racemic) | 98.9% | 98.8% | 99% | 99% | 0.125 µg/mL (≈ 0.573 µM) | 99% | 99% | 98.9% | 98.9% | 98.9% | 99% | –
7 | Cc1ccc(-c2nnn(CCC(C)O)n2)cc1 (racemic) | 99% | 98.9% | 98.9% | 98.9% | 4 µg/mL (≈ 17.2 µM) | 99% | 98.9% | 98.9% | 98.9% | 98.9% | 98.9% | –
8 | CC(O)CCn1nnc(-c2ccccc2Cl)n1 (racemic) | 98.9% | 98.8% | 98.9% | 99% | 8 µg/mL (≈ 31.7 µM) | 99% | 99% | 99% | 99% | 98.9% | 99% | –
9 | CC(O)Cn1nnc(-c2ccccc2)n1 (racemic) | 98.8% | 98.8% | 98.7% | 98.8% | – | 98.9% | 98.7% | 98.8% | 98.9% | 98.8% | 98.7% | –
10 | Cc1ccc(-c2nnn(CC(C)O)n2)cc1 (racemic) | 99% | 98.9% | 99% | 98.8% | – | 98.9% | 98.9% | 98.8% | 98.9% | 98.9% | 98.9% | –
11 | CC(O)Cn1nnc(-c2ccccc2Cl)n1 (racemic) | 99% | 98.9% | 99% | 99% | 0.125 µg/mL (≈ 0.524 µM) | 99% | 99.1% | 98.9% | 99% | 98.9% | 99% | –
12 | C[C@@H]1[C@H](O)[C@@H](C)/C=C/C=C/C=C/C=C/C=C/C=C/C=C/[C@H](O[C@@H]2O[C@H](C)[C@@H](O)[C@H](N)[C@@H]2O)C[C@@H]2O[C@](O)(C[C@@H](O)C[C@@H](O)[C@H](O)CC[C@@H](O)C[C@@H](O)CC(=O)O[C@H]1C)C[C@H](O)[C@H]2C(=O)O [AMPHOTERICIN B] | – | – | – | – | – | – | 100% | – | – | – | – | –
